The values below come from paper PMC3764137, “Sulphamoylated 2-Methoxyestradiol Analogues Induce Apoptosis in Adenocarcinoma Cell Lines” (PLoS ONE, 2013).

“Also recorded” adds a separate entry of the source.

Experiment [1] has as its system HeLa cells. The experiment in a line: Cell morphology by transmission electron microscopy. The experiment is classed as cell-based, human. Conditions: 24 h. How it is done: The in vitro influence of ESE-15-one, EMBS and ESE-16 on cell morphology was determined after exposure for 24 h using transmission electron microscopy (TEM). […] After each fixation step the samples were rinsed 3 times in 0.0075 M sodium phosphate buffer (pH 7.4). Samples were dehydrated using increasing concentrations of ethanol (30%, 50%, 70%, 90%, and 3×100%) and embedded in Quetol resin, sectioned with a microtome and placed on copper discs. Sections were contrasted with 4% aqueous uranyl acetate and Reynolds' lead citrate and viewed with a JOEL JEM 2100F transmission electron microscope (Electron Microscopy Unit, University of Pretoria, South Africa).

Experiment [2] concerns human umbilical vein endothelial cells (HUVECs). As to conditions: 500 nM, 72 hours of exposure; ref 13 (Foster et al. 2008); cited from earlier work.
Experiment [3] has as its system tubulin. The experiment is described as follows: Tubulin polymerization assay (DAPI fluorescence). Format: biochemical. Conditions: for EC50: in vitro tubulin polymerization, read-out: tubulin polymerization inhibition EC50. How it is done: Briefly, microtubule assembly was conducted in a half area 96 well black plate using a microplate reader FLUOstar OPTIMA (BMG Labtechnologies). […] Following 10 min incubation, assembly was initiated by injection of GTP and MgCl2 to a final concentration of 1 mM and 5 mM respectively, yielding a reaction volume of 100 µl. The excitation and emission wavelengths were set at 360 and 450 nm, respectively, and the fluorescence of microtubule-bound DAPI was monitored as a function of time at 37°C. Fluorescence signal at time 0 for each well was subtracted from each of the subsequent fluorescence readings, [22].

Experiment [4] relates to MCF-7 cell line. As to conditions: cited from earlier work.
Experiment [5] deals with MDA-MB-231. As to conditions: 500 nM, 72 hours of exposure; ref 13 (Foster et al. 2008); cited from earlier work.
In experiment [6] the test system is HeLa cells. The experiment in a line: Mitochondrial membrane potential assay (Mitocapture, flow cytometry). The experiment is classed as cell-based, human. Conditions: 0.5 μM analogues (2-methoxyestradiol-bis-sulphamate 0.55 μM), 24 h. The procedure:
Cells (500,000) were seeded with an overnight attachment policy. After 24 h of exposure to 0.5 μM of the sulphamoylated 2ME2 analogues, cells were detached using trypsin and centrifuged at 13,000×g.
(In general: A flow cytometer gives signals particle by particle.)

Experiment [7] relates to caspase 3. Conditions: HeLa cells; another study conducted in our laboratory (data not shown); cited from earlier work.
For experiment [8], the system named is MDA-MB-231 cells. The experiment in a line: Cytochrome c release (FlowCellect, flow cytometry). The experiment is classed as cell-based, human. Conditions: MDA-MB-231, 0.5 μM analogues (2-methoxyestradiol-bis-sulphamate 0.55 μM), 24 h. The procedure:
(§1) This kit utilizes a unique set of buffers that selectively permeabilizes the […] without affecting the mitochondrial membrane. […] Cells (500,000) were seeded with an overnight attachment policy. After 24 h of exposure to 0.5 μM of the sulphamoylated 2ME2 analogues, cells were detached using trypsin and centrifuged at 13,000×g. Cells (500,000) were resuspended in PBS, centrifuged and resuspended in permeabilization buffer (according to supplier's instructions) for 10 min on ice. Subsequently cells were centrifuged, resuspended in 100 µl fixation buffer (according to supplier's instructions) for 20 min at room temperature, centrifuged again and resuspended in blocking buffer (150 µl). After another centrifugation step, cells were centrifuged and resuspended in blocking buffer (twice). Anti-cytochrome c-FITC (10 µl) was added to each sample and samples were incubated for 30 min at room temperature. Cells were centrifuged and blocking buffer (100 µl) was added. After centrifugation, blocking buffer (200 µl) was added to the samples for analysis via flow cytometry (FC500 System flow cytometer, Beckman Coulter South Africa (Pty) Ltd). Cells presenting with cytochrome c release were detected in the fluorescein isothiocyanate (FITC) channel (FL1) showing diffused green fluorescence. Data from at least 10 000 cells were analyzed by means of Cyflogic version 1.2.1 software (Pertu Therho, Turko, Finland).

Experiment [9] relates to HeLa cells. The experiment is described as follows: Cytochrome c release (FlowCellect, flow cytometry). Conditions: 0.5 μM analogues (2-methoxyestradiol-bis-sulphamate 0.55 μM), 24 h. Format: cell-based, human. The procedure: as §1
Experiment [10] relates to caspase-6. The experiment in a line: Caspase 6 colorimetric assay. Conditions: 0.5 μM, 24 h. The experiment is classed as cell-based, human. How it is done: (§2) Possible activation of caspase 3, -6 and -8 was investigated by means of caspase 3, caspase 6 and FLICE/caspase 8 colorimetric kits, respectively. Cells (1,000,000) were seeded with an overnight attachment policy. After 24 h of exposure to 0.5 μM of the sulphamoylated 2ME2 analogues, cells were detached with trypsin and centrifuged at 13,000× g. Cells (500,000) were resuspended in 50 µl of chilled cell lysis buffer and incubated on ice for 10 min. Cells were centrifuged at 10,000×g for a min. Supernatant was transferred to a fresh tube and put on ice. After determination of the protein concentration using the bicinchoninic acid (BCA) protein assay (Thermo Fisher Scientific, Johannesburg, South Africa), 100 µg protein/50 µl cell lysis buffer was mixed with 50 µl 2X reaction buffer (containing 10 mM Dithiothreitol (DTT)). Ac-Asp-Glu-Val-Asp-p-nitroanilide (Ac-DEVD-pNA) (5 µl of 4 mM) (caspase-3-specific substrate), or 5 µl 4 mM […] (Ac-VEID-pNA) (caspase-6-specific substrate), or 5 µl 4 mM Ac-Ile-Glu-Thr-Asp-p-nitroanilide (Ac-IETD-pNA) (caspase-8-specific substrate) was added and the mixture was incubated at 37°C for 120 min (200 µM final concentration). Absorbance was determined at 405 nm on the ELx800 Universal Microplate Reader available from Bio-Tek Instruments Inc. (Vermont, United States of America).

Experiment [11] relates to caspase-8. The experiment is described as follows: FLICE/caspase 8 colorimetric assay. As to conditions: 0.5 μM, 24 h. The experiment is classed as cell-based, human. The procedure: as §2
Experiment [12] relates to HeLa cells. The experiment in a line: Cell number determination by crystal violet staining. Format: cell-based, human. Conditions: for cell growth: 24 h. The procedure: Crystal violet is a method used to determine the number of cells by staining the deoxyribonucleic acid (DNA). Gillies et al. (1986) used crystal violet to quantify cell number in monolayer cultures as a function of the absorbance of the dye taken up by the cells. A dose-dependent study was chosen with a concentration range of 0.1–25 μM since it was previously observed in our laboratory that this concentration series exerts antiproliferative activity in HeLa cells. Exponentially growing HeLa cells were seeded in 96 well tissue culture plates at a cell density of 5,000 cells per well. Cells were incubated at 37°C in a humidified atmosphere containing 5% CO2 for 24 h to allow for attachment. To establish the starting number of cells, a baseline determination was conducted before exposure. Subsequently, the medium was discarded and cells were exposed to the sulphamoylated 2ME2 analogues at a concentration series of 0.1–25 μM for the 24 h at 37°C. Vehicle-treated controls were also included. Cells were fixed with 100 µl of 1% gluteraldehyde (incubation for 15 min at room temperature). Gluteraldehyde was discarded and cells were stained using 100 µl 0.1% crystal violet (incubated at room temperature for 30 min). Excedent crystal violet was discarded and the 96 well plate was submersed under running water. Cells were solubilized using 200 µl 0.2% Triton X-100 and incubated at room temperature for 30 min. Solution (100 µl) was transferred to a new microtitre plate. Afterwards, the absorbance was determined at 570 nm using an ELx800 Universal Microplate Reader available from Bio-Tek Instruments Inc. (Vermont, United States of America).

Experiment [13] deals with MDA-MB-231 cells. The experiment in a line: Double immunofluorescence of intracellular microtubules. Format: cell-based, human. As to conditions: MDA-MB-231, 24 h; 0.189 μM ESE-15-one, 0.5 μM EMBS and ESE-16, 1μM colchicine. The procedure: (§3) In order to visualize the effect of the 2ME2 analogues on microtubule dynamics and integrity, a double immunofluorescence technique using antibodies against tyrosinated and detyrsosinated tubulin was conducted as described by Paturle-Lafanechère et al. (2004). HeLa and MDA-MB-231 cells were seeded onto sterilized coverslips and allowed to grow to 80% confluency for 48 h. Cells were exposed to 0.189 μM ESE-15-one, 0.5 μM EMBS and ESE-16 along with DMSO (negative control) and 1μM colchicine as a positive control for 24 h. Cells were permeablised permeabilized with warmed OPT buffer (80 mmol/L Pipes, […], […], 0.5% Triton X-100 and glycerol 10%, pH 6.8), followed by fixation in ice-cold methanol at −20°C and were subsequently incubated with the primary antibody cocktail (PBS containing anti-detyrosinated tubulin (L4), anti-[…], BSA 0.3%, tween 0.1%). After incubation, cells were incubated with the secondary antibodies, namely Alexa 488 (Invitrogen) and Cy3 (Jackson ImmunoResearch laboratories). Samples were visualized using a Zeiss AxioImager Z1 microscope controlled by Axiovision softwared (Carl Zeiss) (X63 oil objective). Images were captured using an Ocra R2 N/B camera (Hamamatsu) and assessed for microtubule integrity and ratio of tyrosinated to detyrosinated tubulin.

Experiment [14] deals with HeLa cells. The experiment is described as above. Format: cell-based, human. As to conditions: 24 h, 0.189 μM ESE-15-one, 0.5 μM EMBS and ESE-16, 1μM colchicine. How it is done:
as §3

As a reminder, the EC50 is the concentration at which the effect is half-maximal. In the case of `COc1cc2c(cc1OS(N)(=O)=O)CC[C@@H]1[C@@H]2CC[C@]2(C)[C@@H](OS(N)(=O)=O)CC[C@@H]12` [2-methoxyestradiol-bis-sulphamate, reference compound], in experiment [1], the “apoptotic bodies (TEM)” value is recorded as “Apoptotic bodies were observed”. Also, the “vacuoles (TEM)” value in experiment [1] is “vacuoles”. In addition, the “inner mitochondrial membrane potential” value in experiment [2] and in experiment [5] was “depolarized” in each case. Also, in experiment [3], the EC50 was 11 µM. Besides, the “concentration with antiproliferative activity” value in experiment [4] is 0.1 to 1 µM.
Regarding `CCc1cc2c(cc1OS(N)(=O)=O)CC[C@@H]1[C@@H]2CC[C@]2(C)C=CC[C@@H]12` [ESE-16, 2-ethyl-3-O-sulphamoyl-estra-1,3,5 (10) 16-tetraene], the “cells with reduced mitochondrial potential” value in experiment [6] was determined as 68.43%. Moreover, the “apoptotic bodies (TEM)” value in experiment [1] is recorded as “Apoptotic bodies were observed”. For the same compound, in [1], the “vacuoles (TEM)” value was “vacuoles”. Further, the “cell shrinkage (TEM)” value in experiment [1] (compared to vehicle-treated cells) is “shrunken”. Besides, the “caspase 3 activity increase” value in experiment [7] is 8 fold. For the same compound, the “effect on tubulin polymerization” value in [3] (in vitro) was “more pronounced effect on tubulin polymerization; also recorded: pronounced effect comparable with that of colchicine”. Besides, the EC50 in experiment [3] stood at 5 µM. The “Cytochrome c in cytoplasm (cells with cytochrome c release)” value in experiment [8] was determined as 30%; in experiment [9], 10%. Also, in experiment [10], the “caspase-6 activity ratio compared to vehicle-treated cells” value was found to be 3.2. Moreover, the “caspase-8 activity increase compared to vehicle-treated cells” value in experiment [11] is on record as 1.7 fold. Besides, the cell growth was 45.59% in experiment [12] (0.1 µM) and 45.30% in experiment [12] (0.5 µM, compared to vehicle-treated cells). For the same compound, in experiment [12] (24 h of exposure), the “concentration that significantly inhibits HeLa proliferation” value is given as 0.5 µM. Also, the “microtubule integrity” value in experiment [13] is reported as “detyrosinated microtubule fragments”; in [14], “microtubule abrogation; also recorded: complete microtubule depolymerisation”.
`COc1cc2c(c(OC)c1OC)-c1ccc(OC)c(=O)cc1[C@@H](NC(C)=O)CC2` [colchicine, reference compound]: the results for the “microtubule integrity” value in experiment [13] and in experiment [14] were “complete microtubule depolymerisation” and “only fragments of detyrosinated microtubules remaining; also recorded: complete microtubule depolymerisation”, respectively.
